EC50 data for 31 compounds are collected here from patent US11230526B1, “Cylcoalkenyl derivatives useful as agonists of the GPR120 and/or GPR40 receptors” (Janssen Pharmaceutica NV, priority 2018, dated 2022).

Where only a bound is given, the exact number is not on record here.

Assay [1] has as its target T1, Human GPR120 short form (Homo sapiens, UniProt Q5NUL3).
T1 construct: expressed in transfected cells
T1 sequence (Q5NUL3 1-361): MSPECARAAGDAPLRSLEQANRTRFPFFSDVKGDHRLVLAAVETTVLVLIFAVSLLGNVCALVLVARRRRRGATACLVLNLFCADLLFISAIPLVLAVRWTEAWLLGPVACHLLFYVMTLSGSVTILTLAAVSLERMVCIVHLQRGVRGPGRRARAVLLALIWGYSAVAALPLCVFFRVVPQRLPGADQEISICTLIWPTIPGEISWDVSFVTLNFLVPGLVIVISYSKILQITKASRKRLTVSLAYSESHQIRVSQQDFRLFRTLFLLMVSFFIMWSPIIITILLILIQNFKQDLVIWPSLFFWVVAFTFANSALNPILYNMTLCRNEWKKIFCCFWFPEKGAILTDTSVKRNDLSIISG
The assay is described as follows: Human GPR120 calcium flux assay, Procedure Calcium B (4200 cells/well). The assay is classed as cell-based. The gist of the method: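 HEK293 cells stably expressing human GPR120 (NM_001195755.1), 4200 cells/well, starved 1 h and loaded with Fluo-4 NW plus probenecid. Ligand-evoked calcium flux read on FLIPR for 300 s after a 10 s baseline. RFU = Fmax−Fmin; EC50 from four-parameter concentration-response fit.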
(Calcium assays in cells follow changes in intracellular calcium, usually with a dye or a luminescent sensor.)

Assay [2] has as its target T2, human GPR40 (Homo sapiens, UniProt O14842).
T2 construct: expressed in transfected cells
The assay is described as follows: GPR40 calcium flux assay, human GPR40. Type of assay: cell-based. As to conditions: HEK293 cells stably expressing GPR40; table does not say human or rat. The gist of the method: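 Cells preincubated 1 h at 37° C. in HBSS, 20 mM HEPES, 0.1% BSA, then Fluo 8 calcium dye 30 min at 37° C. and 15 min at room temperature.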

T2 sequence (O14842 whole entry): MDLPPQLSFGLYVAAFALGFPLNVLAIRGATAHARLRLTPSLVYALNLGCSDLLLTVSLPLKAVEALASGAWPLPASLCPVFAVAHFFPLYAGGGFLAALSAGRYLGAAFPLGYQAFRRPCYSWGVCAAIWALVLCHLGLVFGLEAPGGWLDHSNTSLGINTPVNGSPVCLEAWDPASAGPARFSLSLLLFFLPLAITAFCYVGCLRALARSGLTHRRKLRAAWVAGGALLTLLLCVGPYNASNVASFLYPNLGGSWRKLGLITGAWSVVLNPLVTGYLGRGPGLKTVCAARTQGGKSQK

By EC50 is commonly meant the midpoint of the concentration-response curve. Consider `O=C(O)CCc1ccc(OCC2=C(C3C=CCC3)CCC2)cc1` (centres unmarked) [Compound 452, 3-[4-[(2-cyclopent-2-en-1-ylcyclopenten-1-yl)methoxy]phenyl]Propanoic Acid], for which the EC50 in assay [1] came out at 127 nM; in assay [2] it was 170 nM.
As for `CCCCC1=C(COc2ccc(CCC(=O)O)cc2)CCC1` [Compound 365], the EC50 is 496 nM in assay [1] and 991 nM in assay [2].
In the same order, the values of `Cn1cc(C2=C(COc3c(F)cc(CCC(=O)O)cc3F)CC(F)(F)CC2)cn1` [Compound 544] are 1350 nM and > 5000 nM.
On to `CCCCC1=C(COc2ccc(CCC(=O)O)c(Cl)c2)CCCC1` [Compound 583, 3-[4-[(2-butylcyclohexen-1-yl)methoxy]-2-chloro-phenyl]Propanoic Acid], for which the values for the concentration giving a half-maximal response (EC50) in assay [1] and in assay [2] were 765 nM and 294 nM, respectively.
In the same order, the values of `O=C(O)CCc1ccc(OCC2=C(Cc3ccccc3)CCC2)cc1` [Compound 322, 3-[4-[(2-benzylcyclopenten-1-yl)methoxy]phenyl]Propanoic Acid] are 1140 nM and 328 nM.
Turning to `Cc1c(CCC(=O)O)ccc(OCC2=C(C3CCCC3)CCC2)c1F` [Compound 431, 3-[4-[(2-cyclopentylcyclopenten-1-yl)methoxy]-3-fluoro-2-methyl-phenyl]Propanoic Acid], the values for the concentration for a half-maximal effect (EC50) in assay [1] and in assay [2] were 59 nM and > 10000 nM, respectively.
On the same counts, the results for `O=C(O)CCc1ccc(OCC2=C(C3CCCC3)CCC2)cc1Cl` [Compound 428, 3-[2-chloro-4-[(2-cyclopentylcyclopenten-1-yl)methoxy]phenyl]Propanoic Acid] are 256 nM and 48 nM.
With `Cc1ccc(C2=C(COc3cc(C)c(CCC(=O)O)cc3F)CCC2)c(F)c1` [Compound 270, 3-[5-fluoro-4-[[2-(2-fluoro-4-methyl-phenyl)cyclopenten-1-yl]methoxy]-2-methyl-phenyl]Propanoic Acid], the EC50 in assay [1] amounted to 189 nM; in assay [2], 1500 nM.
`O=C(O)CCc1ccc(OCC2=C(C3CCOCC3)CCC2)cc1C(F)(F)F` [Compound 415, 3-[4-[(2-tetrahydropyran-4-ylcyclopenten-1-yl)methoxy]-2-(trifluoromethyl)phenyl]Propanoic Acid]: the figures for the half-maximal effective concentration (EC50) in assay [1] and in assay [2] were > 5000 nM and 132 nM, respectively.
`COC1CCC(c2ccc(C)cc2)=C(COc2ccc(CCC(=O)O)cc2)C1` (centres unmarked) [Compound 574, 3-[4-[[5-methoxy-2-(p-tolyl)cyclohexen-1-yl]methoxy]phenyl]Propanoic Acid]: the EC50 was 2130 nM in assay [1] and 4410 nM in assay [2].
On the same counts, the results for `O=C(O)CCc1ccc(OCC2=C(C3CCC4CC43)CCC2)cc1` (centres unmarked) [Compound 455, 3-[4-[[2-(4-bicyclo[3.1.0]hexanyl)cyclopenten-1-yl]methoxy]phenyl]Propanoic Acid] are 340 nM and 403 nM.
In the same order, the values of `Cc1ccc(C2=C(COc3cc(C)c(CCC(=O)O)cc3F)CCC2)cc1` [Compound 326, 3-[5-fluoro-2-methyl-4-[[2-(p-tolyl)cyclopenten-1-yl]methoxy]phenyl]Propanoic Acid] are 157 nM and 4780 nM.
On the same counts, the results for `O=C(O)CCc1ccc(OCC2=C(C3CCCC3)CCC2)c(F)c1` [Compound 425, 3-[4-[(2-cyclopentylcyclopenten-1-yl)methoxy]-3-fluoro-phenyl]Propanoic Acid] are 143 nM and 3230 nM.
`Cc1cc(OCC2=C(c3ccc(Cl)cc3C)CCC2)c(F)cc1CCC(=O)O` [Compound 286, 3-[4-[[2-(4-chloro-2-methyl-phenyl)cyclopenten-1-yl]methoxy]-5-fluoro-2-methyl-phenyl]Propanoic Acid]: the 50% effective concentration (EC50) in assay [1] is 2900 nM; in assay [2], 245 nM.
Consider `O=C(O)CCc1ccc(OCC2=C(c3cc(Cl)ccc3F)CCC2)cc1Cl` [Compound 342, 3-[2-chloro-4-[[2-(5-chloro-2-fluoro-phenyl)cyclopenten-1-yl]methoxy]phenyl]Propanoic Acid], for which the concentration giving a half-maximal response (EC50) turned out to be 515 nM in assay [1] and 322 nM in assay [2].
On to `CCC1CCCC(COc2ccc(CCC(=O)O)c(C)c2C)=C1c1ccc(Cl)cc1` (centres unmarked) [Compound 478, 3-[4-[[2-(4-chlorophenyl)-3-ethyl-cyclohexen-1-yl]methoxy]-2,3-dimethyl-phenyl]Propanoic Acid], for which the EC50 in assay [1] and in assay [2] was > 5000 nM each time.
As to `O=C(O)CCc1ccc(OCC2=C(c3cccc(F)c3)CCC2)cc1C(F)(F)F` [Compound 263, 3-[4-[[2-(3-fluorophenyl)cyclopenten-1-yl]methoxy]-2-(trifluoromethyl)phenyl]Propanoic Acid], the concentration for a half-maximal effect (EC50) in assay [1] worked out at 262 nM; in assay [2], 134 nM.
On the same counts, the results for `Cc1cc(OCC2=C(Cc3cccc(F)c3)CCC2)c(F)cc1CCC(=O)O` [Compound 363, 3-[5-fluoro-4-[[2-[(3-fluorophenyl)methyl]cyclopenten-1-yl]methoxy]-2-methyl-phenyl]Propanoic Acid] are > 5000 nM and 1700 nM.
Take `O=C(O)CCc1ccc(OCC2=C(C3CCCC3)CCC(F)(F)C2)cc1C(F)(F)F` [Compound 606, 3-[4-[(2-cyclopentyl-5,5-difluoro-cyclohexen-1-yl)methoxy]-2-(trifluoromethyl)phenyl]Propanoic Acid]: the EC50 in assay [1] came to 166 nM; in assay [2], 247 nM.
On the same counts, the results for `O=C(O)CCc1ccc(OCC2=C(c3ccc(F)cc3)CCC2)cc1Cl` [Compound 260, 3-[2-chloro-4-[[2-(4-fluorophenyl)cyclopenten-1-yl]methoxy]phenyl]Propanoic Acid] are 541 nM and 488 nM.
Turning to `Cc1c(CCC(=O)O)ccc(OCC2=C(C3CCCC3)CCC2)c1C` [Compound 432, 3-[4-[(2-cyclopentylcyclopenten-1-yl)methoxy]-2,3-dimethyl-phenyl]Propanoic Acid], the EC50 in assay [1] was 44 nM; in assay [2], > 10000 nM.
Take `O=C(O)CCc1ccc(OCC2=C(Cc3cncs3)CCCC2)cc1Cl` [Compound 595, 3-[2-chloro-4-[[2-(thiazol-5-ylmethyl)cyclohexen-1-yl]methoxy]phenyl]Propanoic Acid]: the EC50 in assay [1] was 1110 nM; in assay [2], 218 nM.
With `O=C(O)CCc1ccc(OCC2=C(c3ccc(OC(F)(F)F)cc3)CCC2)cc1C(F)(F)F` [Compound 308, 3-[4-[[2-[4-(trifluoromethoxy)phenyl]cyclopenten-1-yl]methoxy]-2-(trifluoromethyl)phenyl]Propanoic Acid], the results for the EC50 in assay [1] and in assay [2] were > 5000 nM and 899 nM, respectively.
On the same counts, the results for `O=C(O)CCc1ccc(OCC2=C(Cc3cccc(F)c3)CCC2)cc1Cl` [Compound 362, 3-[2-chloro-4-[[2-[(3-fluorophenyl)methyl]cyclopenten-1-yl]methoxy]phenyl]Propanoic Acid] are > 5000 nM and 159 nM.
Regarding `Cc1cc(OCC2=C(C3=CCCCC3)CCC2)c(F)cc1CCC(=O)O` [Compound 352, 3-[4-[[2-(cyclohexen-1-yl)cyclopenten-1-yl]methoxy]-5-fluoro-2-methyl-phenyl]Propanoic Acid], the EC50 was > 5000 nM in assay [1] and > 10000 nM in assay [2].
In the same order, the values of `O=C(O)CCc1ccc(OCC2=C(C3CCC3)CC(F)(F)C2)cc1C(F)(F)F` [Compound 382, 3-[4-[(2-cyclobutyl-4,4-difluoro-cyclopenten-1-yl)methoxy]-2-(trifluoromethyl)phenyl]Propanoic Acid] are 635 nM and 46 nM.
As for `CCC1CCC(COc2ccc(CCC(=O)O)c(C)c2C)=C1c1ccc(Cl)cc1` (centres unmarked) [Compound 6, 3-[4-[[2-(4-chlorophenyl)-3-ethyl-cyclopenten-1-yl]methoxy]-2,3-dimethyl-phenyl]Propanoic Acid], the EC50 in assay [1] and in assay [2] was > 5000 nM each time.
`O=C(O)CCc1ccc(OCC2=C(C3CCCC3)CCC2)cc1F` [Compound 426, 3-[4-[(2-cyclopentylcyclopenten-1-yl)methoxy]-2-fluoro-phenyl]Propanoic Acid]: the EC50 turned out to be 200 nM in assay [1] and 82 nM in assay [2].
In the same order, the values of `O=C(O)CCc1ccc(OCC2=C(Cc3ccc(F)cc3)CCC2)cc1C(F)(F)F` [Compound 353, 3-[4-[[2-[(4-fluorophenyl)methyl]cyclopenten-1-yl]methoxy]-2-(trifluoromethyl)phenyl]Propanoic Acid] are 1330 nM and 46 nM.
On the same counts, the results for `COc1ccc(C2=C(COc3ccc(CCC(=O)O)c(Cl)c3)CCC2)cc1` [Compound 288, 3-[2-chloro-4-[[2-(4-methoxyphenyl)cyclopenten-1-yl]methoxy]phenyl]Propanoic Acid] are 847 nM and 1080 nM.
Turning to `O=C(O)CCc1ccc(OCC2=C(C3CCCC3)CCC2)cc1C(F)(F)C(F)(F)F` [Compound 446, 3-[4-[(2-cyclopentylcyclopenten-1-yl)methoxy]-2-(1,1,2,2,2-pentafluoroethyl)phenyl]Propanoic Acid], the EC50 in assay [1] is 828 nM; in assay [2] it was 458 nM.
